Test results taken from PMC8429421, “Structural basis for the tryptophan sensitivity of TnaC-mediated ribosome stalling” (Nature Communications, 2021).

Target: T1, TnaC–ribosome complex (TnaC–70S) (Escherichia coli, UniProt P0AD89+P61175)
T1 construct: nascent 24-residue TnaC as peptidyl-tRNA(Pro) in E. coli 70S ribosome; L-Trp site formed by TnaC, uL22 Lys90 and 23S rRNA (Psi746, G748, A752, U2609); cell-free translation (PURExpress; RTS100 HY for cryo-EM)
Assay: toeprinting of stalled ribosomes in reconstituted cell-free translation, hyperbolic fit; cryo-EM structure […] Å
Format: biochemical
Conditions: PURExpress lacking amino acids, other 19 amino acids 0.3 mM each, 37 °C, 30 min; arrest at codon 24; apparent functional value, not an equilibrium constant; read-out: [L-Trp]0.5

T1 sequence (P0AD89 whole entry, one chain of several): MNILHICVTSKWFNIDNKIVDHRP

Structure (SMILES): N[C@@H](Cc1c[nH]c2ccccc12)C(=O)O [L-Trp]
- EC50: 320 µM
